Experimental data: PubChem BioAssay AID248 (DTP/NCI, 2004)
Values joined by “and” are separate entries in the source; they are usually repeats but may differ in a detail not shown here. Equal values may be shown once. Toxic doses and inconclusive results are not listed.

System: L1210 leukemia ip in BDF1 mice, survival T/C
Assay: NCI In Vivo Anticancer Drug Screen. Data for tumor model L1210 Leukemia (intraperitoneal) in B6D2F1 (BDF1) mice
Conditions: endpoint: mean survival time, higher = longer survival
How it was run: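 In this screen, tumor-bearing mice given compound are compared to those given vehicle, and their survival values are reported as a treated-to-control quotient.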

Cc1c(Cl)cc(C(C)C)c(O)c1CN1CCOCC1
T/C (dose: 222.0 mg/kg/injection, schedule: Q01DX Z (ip), vehicle: methylcellulose (MC)): 96 % of control
T/C (dose: 333.0 mg/kg/injection, schedule: Q01DX Z (ip), vehicle: methylcellulose (MC)): 109 % of control
T/C (dose: 500.0 mg/kg/injection, schedule: Q01DX Z (ip), vehicle: methylcellulose (MC)): 102 % of control

N#Cc1c(NN)n(C2OC(CO)C(O)C2O)c2ncncc12 (configuration not stated)
T/C (dose: 100.0 mg/kg/injection, schedule: Q01DX005 (ip), vehicle: saline): 106 % of control
T/C (dose: 200.0 mg/kg/injection, schedule: Q01DX005 (ip), vehicle: saline): 106 % of control

CCOC(=O)C1(N)CCCC1
T/C (dose: 15.0 mg/kg/injection, schedule: Q01DX Z (ip), vehicle: carboxymethylcellulose (CMC)): 105 % of control
T/C (dose: 23.0 mg/kg/injection, schedule: Q01DX Z (ip), vehicle: carboxymethylcellulose (CMC)): 108 % of control
T/C (dose: 31.3 mg/kg/injection, schedule: Q01DX015 (ip), vehicle: saline): 96 % of control
T/C (dose: 35.0 mg/kg/injection, schedule: Q01DX Z (ip), vehicle: carboxymethylcellulose (CMC)): 117 % of control
T/C (dose: 62.5 mg/kg/injection, schedule: Q01DX015 (ip), vehicle: saline): 124 % of control
T/C (dose: 83.0 mg/kg/injection, schedule: Q01DX Z (ip), vehicle: carboxymethylcellulose (CMC)): 122 % of control
T/C (dose: 125.0 mg/kg/injection, schedule: Q01DX015 (ip), vehicle: saline): 150 % of control
T/C (dose: 125.0 mg/kg/injection, schedule: Q01DX Z (ip), vehicle: carboxymethylcellulose (CMC)): 122 % of control
T/C (dose: 188.0 mg/kg/injection, schedule: Q01DX Z (ip), vehicle: carboxymethylcellulose (CMC)): 110 % of control
T/C (dose: 250.0 mg/kg/injection, schedule: Q01DX015 (ip), vehicle: saline): 157 % of control
T/C (dose: 500.0 mg/kg/injection, schedule: Q01DX015 (ip), vehicle: saline): 118 % of control

CN(C)C(=S)SCC(=O)c1ccccc1
T/C (dose: 2.5 mg/kg/injection, schedule: Q01DX009 (ip), vehicle: saline with Tween-80): 93 % of control
T/C (dose: 5.0 mg/kg/injection, schedule: Q01DX009 (ip), vehicle: saline with Tween-80): 89 % of control
T/C (dose: 10.0 mg/kg/injection, schedule: Q01DX009 (ip), vehicle: saline with Tween-80): 105 % of control

COc1ccc2c3c1OC1C(OS(=O)(=O)c4ccc(C)cc4)C=CC4C(C2)N(C)CCC341 (configuration not stated)
T/C (dose: 75.0 mg/kg/injection, schedule: Q01DX001 (ip), vehicle: carboxymethylcellulose (CMC)): 100 % of control
T/C (dose: 75.0 mg/kg/injection, schedule: Q01DX001 (ip), vehicle: saline): 101 % of control
T/C (dose: 150.0 mg/kg/injection, schedule: Q01DX001 (ip), vehicle: carboxymethylcellulose (CMC)): 97 % of control
T/C (dose: 150.0 mg/kg/injection, schedule: Q01DX001 (ip), vehicle: saline): 103 % of control
T/C (dose: 300.0 mg/kg/injection, schedule: Q01DX001 (ip), vehicle: carboxymethylcellulose (CMC)): 95 % of control
T/C (dose: 300.0 mg/kg/injection, schedule: Q01DX001 (ip), vehicle: saline): 104 % of control

O=C(O)C(Nc1ccc(Cc2ccc(NC(C(=O)O)c3ccccc3)cc2)cc1)c1ccccc1 (configuration not stated)
T/C (dose: 100.0 mg/kg/injection, schedule: Q04DX002 (ip), vehicle: Klucel (hydroxypropylcellulose) (HPC)): 100 % of control
T/C (dose: 200.0 mg/kg/injection, schedule: Q04DX002 (ip), vehicle: Klucel (hydroxypropylcellulose) (HPC)): 103 % of control
T/C (dose: 400.0 mg/kg/injection, schedule: Q04DX002 (ip), vehicle: Klucel (hydroxypropylcellulose) (HPC)): 92 % of control

O=[N+]([O-])c1cccc(OCCCCOc2ccc(S(=O)(=O)F)cc2)c1
T/C (dose: 50.0 mg/kg/injection, schedule: Q01DX001 (ip), vehicle: Klucel (hydroxypropylcellulose) (HPC)): 92 % of control
T/C (dose: 100.0 mg/kg/injection, schedule: Q01DX001 (ip), vehicle: Klucel (hydroxypropylcellulose) (HPC)): 94 % of control
T/C (dose: 200.0 mg/kg/injection, schedule: Q01DX001 (ip), vehicle: Klucel (hydroxypropylcellulose) (HPC)): 90 % of control

C1CCC(NC2=NCCO2)CC1
T/C (dose: 12.5 mg/kg/injection, schedule: Q04DX002 (ip), vehicle: saline with Tween-80): 101 % of control
T/C (dose: 25.0 mg/kg/injection, schedule: Q04DX002 (ip), vehicle: saline with Tween-80): 93 % of control
T/C (dose: 50.0 mg/kg/injection, schedule: Q04DX002 (ip), vehicle: saline with Tween-80): 90 % of control

C[NH-].C[NH-].[Cl][Pt+2][Cl]
T/C (dose: 0.38 mg/kg/injection, schedule: Q03HX024 (ip), vehicle: water): 111 % of control
T/C (dose: 0.75 mg/kg/injection, schedule: Q03HX024 (ip), vehicle: water): 109 % of control
T/C (dose: 1.0 mg/kg/injection, schedule: Q01DX009 (ip), vehicle: other): 108 % of control
T/C (dose: 1.5 mg/kg/injection, schedule: Q03HX024 (ip), vehicle: water): 107 % of control
T/C (dose: 1.56 mg/kg/injection, schedule: Q03HX008 (ip), vehicle: water): 106 % of control
T/C (dose: 2.0 mg/kg/injection, schedule: Q01DX001 (ip), vehicle: other): 108 % of control
T/C (dose: 2.0 mg/kg/injection, schedule: Q01DX009 (ip), vehicle: other): 122 % of control
T/C (dose: 2.5 mg/kg/injection, schedule: Q01DX009 (ip), vehicle: water): 110 % of control
T/C (dose: 2.6 mg/kg/injection, schedule: Q01DX009 (ip), vehicle: saline with Tween-80): 113 % of control
T/C (dose: 3.0 mg/kg/injection, schedule: Q04DX003 (ip), vehicle: water): 116 % of control
T/C (dose: 3.13 mg/kg/injection, schedule: Q03HX008 (ip), vehicle: water): 115 % of control
T/C (dose: 4.0 mg/kg/injection, schedule: Q01DX001 (ip), vehicle: other): 95 % of control
T/C (dose: 4.0 mg/kg/injection, schedule: Q01DX009 (ip), vehicle: other): 116 % of control
T/C (dose: 4.0 mg/kg/injection, schedule: Q01DX009 (ip), vehicle: saline with Tween-80): 124 % of control
T/C (dose: 5.0 mg/kg/injection, schedule: Q04DX003 (ip), vehicle: saline with Tween-80): 115 % of control and 120 % of control
T/C (dose: 6.0 mg/kg/injection, schedule: Q04DX003 (ip), vehicle: water): 123 % of control
T/C (dose: 8.0 mg/kg/injection, schedule: Q01DX001 (ip), vehicle: other): 105 % of control
T/C (dose: 8.0 mg/kg/injection, schedule: Q04DX003 (ip), vehicle: saline with Tween-80): 123 % of control
T/C (dose: 9.0 mg/kg/injection, schedule: Q01DX009 (ip), vehicle: saline with Tween-80): 108 % of control
T/C (dose: 12.0 mg/kg/injection, schedule: Q04DX003 (ip), vehicle: saline with Tween-80): 164 % of control
T/C (dose: 12.5 mg/kg/injection, schedule: Q01DX009 (ip), vehicle: saline with Tween-80): 98 % of control and 90 % of control
T/C (dose: 16.0 mg/kg/injection, schedule: Q01DX001 (ip), vehicle: other): 123 % of control
T/C (dose: 16.0 mg/kg/injection, schedule: Q01DX009 (ip), vehicle: other): 90 % of control
T/C (dose: 25.0 mg/kg/injection, schedule: Q01DX001 (ip), vehicle: water): 120 % of control
T/C (dose: 32.0 mg/kg/injection, schedule: Q01DX001 (ip), vehicle: other): 119 % of control
T/C (dose: 50.0 mg/kg/injection, schedule: Q04DX003 (ip), vehicle: saline with Tween-80): 88 % of control

C=C1c2c(Cl)cccc2C(CC)(CC)c2cccc(Cl)c21
T/C (dose: 100.0 mg/kg/injection, schedule: Q04DX003 (ip), vehicle: saline with Tween-80): 94 % of control
T/C (dose: 200.0 mg/kg/injection, schedule: Q04DX003 (ip), vehicle: saline with Tween-80): 94 % of control
T/C (dose: 400.0 mg/kg/injection, schedule: Q04DX003 (ip), vehicle: saline with Tween-80): 92 % of control

Nc1ncnc2c1ncn2CCCNC(=O)c1cc([N+](=O)[O-])cc([N+](=O)[O-])c1
T/C (dose: 100.0 mg/kg/injection, schedule: Q01DX009 (ip), vehicle: saline): 103 % of control
T/C (dose: 200.0 mg/kg/injection, schedule: Q01DX009 (ip), vehicle: saline): 96 % of control
T/C (dose: 400.0 mg/kg/injection, schedule: Q01DX009 (ip), vehicle: saline): 90 % of control

COC(=O)C1CCCC23CC(CC12)C(C)(C)C3Br (configuration not stated)
T/C (dose: 100.0 mg/kg/injection, schedule: Q01DX009 (ip), vehicle: Klucel (hydroxypropylcellulose) (HPC)): 94 % of control
T/C (dose: 100.0 mg/kg/injection, schedule: Q04DX003 (ip), vehicle: Klucel (hydroxypropylcellulose) (HPC)): 97 % of control
T/C (dose: 200.0 mg/kg/injection, schedule: Q01DX009 (ip), vehicle: Klucel (hydroxypropylcellulose) (HPC)): 97 % of control
T/C (dose: 200.0 mg/kg/injection, schedule: Q04DX003 (ip), vehicle: Klucel (hydroxypropylcellulose) (HPC)): 90 % of control
T/C (dose: 400.0 mg/kg/injection, schedule: Q01DX009 (ip), vehicle: Klucel (hydroxypropylcellulose) (HPC)): 90 % of control
T/C (dose: 400.0 mg/kg/injection, schedule: Q04DX003 (ip), vehicle: Klucel (hydroxypropylcellulose) (HPC)): 97 % of control
